These results are taken from ChEMBL document CHEMBL5370591, “A Potent and Narrow-Spectrum Antibacterial against Clostridioides difficile Infection” (J Med Chem, 2023).

The structures appear in SMILES notation. In brackets after ≈: the same amount, converted by molar mass. Activity calls are given as the source filed them. The rule behind the calls is not given here.

Series [1] in a line: Selectivity ratio of IC50 for human THP-1 cells to MIC for Clostridium difficile ATCC 43255. The class given is toxicity.
Series [2] concerns THP-1. Description: Cytotoxicity against human THP-1 cells assessed as increase in LDH release incubate for 24 hrs by trypan-blue staining based analysis. It counts as functional, cell-based. The following applies: THP-1, 24 h. On the technique in general: LDH in the medium is a marker of cell lysis.
The subject of series [3] is Clostridioides difficile. Description: Antibacterial activity against Clostridium difficile ATCC 43255 measured after 48 hrs by two fold serial dilution method. The class given is functional.
The nature of series [4]: Selectivity ratio of IC50 for human HepG2 cells to MIC for Clostridium difficile ATCC 43255. It counts as toxicity.
Series [5] relates to HepG2. Description: Antiproliferative activity against human HepG2 cells assessed as inhibition of cell growth by XTT assay. The class given is functional, cell-based. (Formazan colour is commonly taken as a measure of viable cells.)
In series [6] the test system is Staphylococcus epidermidis. Description: Antibacterial activity against Staphylococcus epidermidis ATCC 35547 assessed as inhibition of bacterial growth by broth microdilution method. The class given is functional.
Series [7] has as its system Clostridioides difficile. The experiment in a line: Antibacterial activity against Clostridium difficile ATCC 43255 assessed as inhibition of bacterial growth by broth microdilution method. The class given is functional. A general note: Dilution methods test growth across graded concentrations, often in twofold steps.
In series [8] the test system is Clostridioides difficile. The experiment in a line: Antibacterial activity against Clostridium difficile NR49305 assessed as inhibition of bacterial growth by broth microdilution method. The class given is functional.
Series [9] relates to Staphylococcus aureus. Description: Antibacterial activity against vancomycin-resistant Staphylococcus aureus clinical isolate 2 assessed as inhibition of bacterial growth by broth microdilution method. The class given is functional.
Series [10] has as its system Limosilactobacillus reuteri. Description: Antibacterial activity against Lactobacillus reuteri HM-102 assessed as inhibition of bacterial growth by broth microdilution method. The class given is functional.
Series [11] concerns Enterococcus faecalis. Description: Antibacterial activity against Enterococcus faecalis ATCC 29212 assessed as inhibition of bacterial growth by broth microdilution method. The class given is functional.
In series [12] the test system is Enterococcus faecium. Description: Antibacterial activity against vancomycin susceptible Enterococcus faecium119-39A assessed as inhibition of bacterial growth by broth microdilution method. It counts as functional. The following applies: 119-39A.
Series [13] deals with Staphylococcus aureus. Description: Antibacterial activity against Staphylococcus aureus NRS119 assessed as inhibition of bacterial growth by broth microdilution method. The class given is functional.
For series [14], the system named is Streptococcus pyogenes. The experiment in a line: Antibacterial activity against Streptococcus pyogenes ATCC 49399 assessed as inhibition of bacterial growth by broth microdilution method. The class given is functional.
Series [15] relates to Acinetobacter baumannii. Description: Antibacterial activity against Acinetobacter baumannii ATCC17961 assessed as inhibition of bacterial growth by broth microdilution method. The class given is functional.
The test system of series [16] is Staphylococcus aureus. The experiment in a line: Antibacterial activity against Staphylococcus aureus ATCC 29213 assessed as inhibition of bacterial growth by broth microdilution method. The class given is functional.
For series [17], the system named is Bacillus licheniformis. Description: Antibacterial activity against Bacillus licheniformis ATCC 12759 assessed as inhibition of bacterial growth by broth microdilution method. The class given is functional.
Series [18] deals with Enterococcus faecium. Description: Antibacterial activity against vancomycin resistant Enterococcus faecium 106 assessed as inhibition of bacterial growth by broth microdilution method. It counts as functional.
The test system of series [19] is Klebsiella pneumoniae. Description: Antibacterial activity against Klebsiella pneumoniae ATCC700603 assessed as inhibition of bacterial growth by broth microdilution method. The class given is functional.
In series [20] the test system is Staphylococcus aureus. Description: Antibacterial activity against Staphylococcus aureus NRS100 assessed as inhibition of bacterial growth by broth microdilution method. It counts as functional.
Series [21] concerns Enterococcus faecalis. Description: Antibacterial activity against vancomycin susceptible Enterococcus faecalis 201 assessed as inhibition of bacterial growth by broth microdilution method. It counts as functional.
The test system of series [22] is Staphylococcus aureus. Description: Antibacterial activity against vancomycin-resistant Staphylococcus aureus clinical isolate 1 assessed as inhibition of bacterial growth by broth microdilution method. The class given is functional.
In series [23] the test system is Enterococcus faecium. The experiment in a line: Antibacterial activity against Enterococcus faecium NCTC 7171 assessed as inhibition of bacterial growth by broth microdilution method. The class given is functional.
Series [24] deals with Escherichia coli. The experiment in a line: Antibacterial activity against Escherichia coli ATCC25922 assessed as inhibition of bacterial growth by broth microdilution method. It counts as functional.
Series [25] deals with Bacteroides fragilis. The experiment in a line: Antibacterial activity against Bacteroides fragilis HM-709 assessed as inhibition of bacterial growth by broth microdilution method. The class given is functional.
For series [26], the system named is Clostridioides difficile. The experiment in a line: Antibacterial activity against Clostridium difficile 24531 assessed as inhibition of bacterial growth by broth microdilution method. The class given is functional.
The test system of series [27] is Streptococcus oralis. The experiment in a line: Antibacterial activity against Streptococcus oralis ATCC 9811 assessed as inhibition of bacterial growth by broth microdilution method. The class given is functional.
Series [28] concerns Clostridioides difficile. Description: Antibacterial activity against Clostridium difficile NR49302 assessed as inhibition of bacterial growth by broth microdilution method. The class given is functional.
The subject of series [29] is Clostridioides difficile. The experiment in a line: Antibacterial activity against Clostridium difficile NR49294 assessed as inhibition of bacterial growth by broth microdilution method. The class given is functional.
In series [30] the test system is Pseudomonas aeruginosa. Description: Antibacterial activity against Pseudomonas aeruginosa ATCC27853 assessed as inhibition of bacterial growth by broth microdilution method. It counts as functional.
Series [31] relates to Bifidobacterium longum. Description: Antibacterial activity against Bifidobacterium longum HM-846 assessed as inhibition of bacterial growth by broth microdilution method. The class given is functional.
Series [32] deals with Clostridioides difficile. Description: Antibacterial activity against Clostridium difficile NR49292 assessed as inhibition of bacterial growth by broth microdilution method. The class given is functional.
The subject of series [33] is Eubacterium sp. Description: Antibacterial activity against Eubacterium sp. HM-178 assessed as inhibition of bacterial growth by broth microdilution method. It counts as functional.
Series [34] concerns Klebsiella aerogenes. The experiment in a line: Antibacterial activity against Klebsiella aerogenes ATCC35029 assessed as inhibition of bacterial growth by broth microdilution method. It counts as functional.
The test system of series [35] is Staphylococcus aureus. Description: Antibacterial activity against Staphylococcus aureus ATCC 27660 assessed as inhibition of bacterial growth by broth microdilution method. The class given is functional.
Series [36] deals with Clostridioides difficile. Description: Antibacterial activity against Clostridium difficile NR49318 assessed as inhibition of bacterial growth by broth microdilution method. The class given is functional.
Series [37] relates to Clostridioides difficile. The experiment in a line: Antibacterial activity against Clostridium difficile NR49310 assessed as inhibition of bacterial growth by broth microdilution method. The class given is functional.
Series [38] has as its system Clostridioides difficile. Description: Antibacterial activity against Clostridium difficile BAA-1870 assessed as inhibition of bacterial growth by broth microdilution method. The class given is functional.
For series [39], the system named is Clostridioides difficile. Description: Antibacterial activity against Clostridium difficile 23828 assessed as inhibition of bacterial growth by broth microdilution method. It counts as functional.
Series [40] has as its system Bacillus cereus. Description: Antibacterial activity against Bacillus cereus ATCC 13061 assessed as inhibition of bacterial growth by broth microdilution method. The class given is functional.
Series [41] relates to Staphylococcus haemolyticus. The experiment in a line: Antibacterial activity against Staphylococcus haemolyticus ATCC 29970 assessed as inhibition of bacterial growth by broth microdilution method. The class given is functional.
The subject of series [42] is Fusobacterium nucleatum. The experiment in a line: Antibacterial activity against Fusobacterium nucleatum HM-992 assessed as inhibition of bacterial growth by broth microdilution method. The class given is functional.
Series [43] deals with Staphylococcus aureus. The experiment in a line: Antibacterial activity against Staphylococcus aureus NRS120 assessed as inhibition of bacterial growth by broth microdilution method. It counts as functional.
The subject of series [44] is Lactobacillus gasseri. Description: Antibacterial activity against Lactobacillus gasseri HM-644 assessed as inhibition of bacterial growth by broth microdilution method. The class given is functional.
The test system of series [45] is Clostridioides difficile. Description: Antibacterial activity against Clostridium difficile 26675 assessed as inhibition of bacterial growth by broth microdilution method. The class given is functional.
Series [46] has as its system Veillonella. The experiment in a line: Antibacterial activity against Veillonella HM-49 assessed as inhibition of bacterial growth by broth microdilution method. It counts as functional.
Series [47] relates to Enterococcus faecalis. The experiment in a line: Antibacterial activity against vancomycin resistant Enterococcus faecalis 99 assessed as inhibition of bacterial growth by broth microdilution method. It counts as functional.
Series [48] has as its system Clostridioides difficile. The experiment in a line: Antibacterial activity against Clostridium difficile ATCC 43255 assessed as as time duration of post-antibiotic effect for suppression of bacterial growth at 4 times MIC incubated for 1 hr in broth solution. The class given is functional.
Series [49] concerns Clostridioides difficile. Description: Antibacterial activity against Clostridium difficile BAA-1803 assessed as inhibition of bacterial growth by broth microdilution method. The class given is functional.
The test system of series [50] is Clostridioides difficile. The experiment in a line: Antibacterial activity against Clostridium difficile ATCC 43255 assessed as damage in cell wall at 8 time MIC incubated for 24 hrs by scanning electron microscopy based analysis. It counts as functional, organism-based.

Turning to `O=[N+]([O-])c1c[nH]c(-c2nc(-c3ccc(OC4CCC4)cc3)no2)n1`, the selectivity ratio in series [1] was above 512; in series [4], 168. The concentration for half-maximal inhibition (IC50) was above 128 µg/mL in series [2] and 41.9 µg/mL (≈ 128 µM) in [5]. In series [3], this compound yielded an MIC of 0.25 µg/mL (≈ 0.764 µM).
`Oc1ccc(-c2nc(-c3ccc(OC4CCCC4)cc3)no2)cc1`: the MIC in series [6] is 2 µg/mL (≈ 6.2 µM); in series [7], 2 µg/mL (≈ 6.2 µM); in series [8], 2 µg/mL (≈ 6.2 µM); in series [9] it was 2 µg/mL (≈ 6.2 µM); in [10] it was above 128 µg/mL; in series [11] it was 4 µg/mL (≈ 12.4 µM). Also, the MIC in series [12] was 2 µg/mL (≈ 6.2 µM); in [13] it was 1 µg/mL (≈ 3.1 µM); in [14], above 128 µg/mL; in [15], above 128 µg/mL; in [16] it was 2 µg/mL (≈ 6.2 µM); in series [17], 4 µg/mL (≈ 12.4 µM). The MIC in series [18] is 2 µg/mL (≈ 6.2 µM); in series [19], above 128 µg/mL; in series [20], 1 µg/mL (≈ 3.1 µM); in [21], 4 µg/mL (≈ 12.4 µM); in [22] it was 2 µg/mL (≈ 6.2 µM); in series [23], 4 µg/mL (≈ 12.4 µM). In addition, the minimum inhibitory concentration (MIC) was above 128 µg/mL in [24]; 2 µg/mL (≈ 6.2 µM) in series [25]; 4 µg/mL (≈ 12.4 µM) in series [26]; above 128 µg/mL in series [27]; 2 µg/mL (≈ 6.2 µM) in series [28]; 2 µg/mL (≈ 6.2 µM) in series [29]. Further, the minimal inhibitory concentration (MIC) in series [30] was above 128 µg/mL; in series [31], 1 µg/mL (≈ 3.1 µM); in series [32] it was 2 µg/mL (≈ 6.2 µM); in [33], 4 µg/mL (≈ 12.4 µM); in [34] it was above 128 µg/mL; in [35] it was 2 µg/mL (≈ 6.2 µM). The MIC was determined as 4 µg/mL (≈ 12.4 µM) in series [36]; 4 µg/mL (≈ 12.4 µM) in series [37]; 2 µg/mL (≈ 6.2 µM) in series [38]; 4 µg/mL (≈ 12.4 µM) in series [39]; 2 µg/mL (≈ 6.2 µM) in series [40]; 2 µg/mL (≈ 6.2 µM) in [41]. Further, the MIC in series [42] was 2 µg/mL (≈ 6.2 µM); in series [43] it was 2 µg/mL (≈ 6.2 µM); in series [44] it was above 128 µg/mL; in series [45], 4 µg/mL (≈ 12.4 µM); in series [46] it was above 128 µg/mL; in [47], 4 µg/mL (≈ 12.4 µM). Also, in [2], the IC50 amounted to 18 µg/mL (≈ 55.8 µM).
Regarding `CN[C@H](CC(C)C)C(=O)N[C@H]1C(=O)N[C@@H](CC(N)=O)C(=O)N[C@H]2C(=O)N[C@H]3C(=O)N[C@H](C(=O)N[C@H](C(=O)O)c4cc(O)cc(O)c4-c4cc3ccc4O)[C@H](O)c3ccc(c(Cl)c3)Oc3cc2cc(c3O[C@@H]2O[C@H](CO)[C@@H](O)[C@H](O)[C@H]2O[C@H]2C[C@](C)(N)[C@H](O)[C@H](C)O2)Oc2ccc(cc2Cl)[C@H]1O` [VANCOMYCIN], the Time in series [48] stood at 3 h. The minimum inhibitory concentration (MIC) in series [49] was 2 µg/mL (≈ 1.38 µM); in series [22] it was 64 µg/mL (≈ 44.2 µM); in series [25], 16 µg/mL (≈ 11 µM); in series [29], 0.25 µg/mL (≈ 0.173 µM); in series [31], 0.25 µg/mL (≈ 0.173 µM); in [32] it was 0.25 µg/mL (≈ 0.173 µM). Moreover, the MIC in series [36] and in series [42] was 0.25 µg/mL (≈ 0.173 µM) in each case. In addition, the outcome in series [50] was Active.

What is called IC50 is the concentration that inhibits the measured activity by half. By MIC is commonly meant the least concentration at which growth counts as inhibited.
